Test results from EP3360891B1, “CELL PENETRATING PEPTIDES OF HUMAN ORIGIN” (Karlsruher Institut für Technologie, priority 2017, dated 2018).
Ends that are not written are not given here. Peptide text beside a SMILES is read from it. * marks the point of attachment. 5FAM = O=C1OC2(c3ccc(O)cc3Oc3cc(O)ccc32)c2ccc(C(=O)*)cc21

Legend:
in vitro = details: human
Experimental: Said cells (7000 cells per well) were seeded in 96-well plate and were allowed to grow overnight in standard growth medium containing FBS. On the next day, the medium was discarded and the cells were washed thrice with phosphate buffered saline and incubated with the peptides at 10µM, 25µM, 50µM and 100µM in culture medium without FBS for 24 h at 37°C, 5% CO2. On the following day the cells were washed again with phosphate buffered saline. MTT reagent was added to cells at a final concentration of 1mg/ml in phosphate buffered saline and incubated for 2-4 h at 37°C, 5% CO2. Addition of MTT to the said cells yielded purple formazan crystals that were dissolved by addition of DMSO and the absorbance was measured at 570 nm.

[1] = system: HaCaT keratinocyte cell line; experiment: Cellular uptake into HaCaT keratinocytes, flow cytometry; format: cell-based, human; details: for cellular translocation: 25µM carboxyfluorescein labeled peptide, 1 h, 37°C, medium without FBS, mean of six measurements; for cell uptake in comparison to SSL-25: 1 h incubation at a concentration of 25µM
Experimental: Cells (20,000 cells per well) were seeded in 24-well plates and allowed to grow in standard growth medium containing Fetal Bovine Serum (FBS) overnight to attain a confluency of 70%. On the following day, the medium was discarded and cells were washed with phosphate buffered saline. Subsequently the peptide was added at a final concentration of 25µM in culture medium without FBS. The cells were incubated with the peptides labeled with carboxyfluorescein at the N-terminus at 37°C, 5% CO2 for 1 h in the dark. Following incubation of the cells with the peptides, the cells were washed three times with phosphate buffered saline. Subsequently, the cells were trypsinized using 0.25% Trypsin-EDTA for 10 min at 37°C, 5% CO2 to allow the protease dependent degradation of adsorbed surface bound peptides and to allow the detachment of cells from the 24-well plate for further analysis.
The cellular uptake of peptides was assessed by flow cytometry. 5000 events per sample were recorded and analyzed in the flow cytometer. A mean of six measurements was plotted with standard deviations being represented by error bars. […] These peptides translocate in HaCaT cells more efficiently as compared to SSL-25 (31%), SSL-9 E5A D9K (28%) and SSL-9 E5K D9K (22%).

[2] = Translocation into lipid vesicles (encapsulated chymotrypsin, Gly-Gln-Phe-Coumarin tag, method of Marks et al.); details: after 10 min, without Zn2+ ions, Figure 4B
Excerpt: Wimley, Spontaneous Membrane-Translocating Peptides by Orthogonal High-Throughput Screening, J Am Chem Soc, 133 (2011) 8995-9004].
In this method, the sequence Gly-Gln-Phe-Coumarin is C-terminally coupled to the peptides. Chymotrypsin is encapsulated in the vesicles, and this enzyme cuts the peptide between phenylalanine and coumarin. If accordingly labeled peptides penetrate into the vesicles, Chymotrypsin acts and cleaves the Phe-Coumarin bond which sets the coumarin free and causes a bathochromic shift of the fluorescence maximum of about 50 nm. which can be determined fluorimetrically.
Large unilamellar vesicles consisting of POPC / POPG 25:75 (mol:mol) were used in a concentration of 100 µM in buffer without or with 100 µM ZnSO4. […]

human erythrocytes = human erythrocytes 0.25 % hematocrit, 37 °C, 30 minutes, 2-fold dilutions from 1024 µM stock, relative to Triton X-100 lysis
Experimental: A concentrated solution of human erythrocytes was adjusted to a hematocrit of 0.5% by repeated washing with buffer solution (172 mM Tris-HCI, pH 7.6) and this diluted solution was equilibrated to 37 °C in a water bath.
The peptides were prepared as a 1024 µM stock solutions in buffer, added to the erythrocytes in sequential 2-fold dilutions and incubated at 37 °C for 30 minutes with occasional shaking.
The cells were centrifuged and the released hemoglobin in the supernatant was quantified using spectrophotometry. The obtained values were set in reference to the value obtained by complete lysis of all cells upon addition of Triton™ X-100.

CC(C)C[C@H](NC(=O)CNC(=O)[C@H](CCCCN)NC(=O)[C@H](C)NC(=O)[C@H](CC(C)C)NC(=O)[C@H](CC(C)C)NC(=O)[C@H](CO)NC(=O)[C@H](CO)NC(=O)c1ccc2c(c1)C(=O)OC21c2ccc(O)cc2Oc2cc(O)ccc21)C(=O)N[C@@H](CCCCN)C(=O)O [SSL-9 E5A D9K] (5FAM-SSLLAKGLK-OH; N-terminus and C-terminus assumed)
viability at 24 h, 100 µM (in vitro; HaCaT keratinocytes): 70% | cellular translocation [1]: 28% | cell uptake in comparison to SSL-25 [1]: reduced but comparable uptake

CC(C)C[C@H](NC(=O)CNC(=O)[C@H](CCCCN)NC(=O)[C@H](CCCCN)NC(=O)[C@H](CC(C)C)NC(=O)[C@H](CC(C)C)NC(=O)[C@H](CO)NC(=O)[C@H](CO)NC(=O)c1ccc2c(c1)C(=O)OC21c2ccc(O)cc2Oc2cc(O)ccc21)C(=O)N[C@@H](C)C(=O)O [SSL-9 E5K D9A] (5FAM-SSLLKKGLA-OH; N-terminus and C-terminus assumed)
viability at 24 h, 100 µM (in vitro): 70% | cellular translocation [1]: 81.7% | cell uptake in comparison to SSL-25 [1]: higher cell uptake in comparison to SSL-25

CC(C)C[C@H](NC(=O)CNC(=O)[C@H](CCCCN)NC(=O)[C@H](CCCCN)NC(=O)[C@H](CC(C)C)NC(=O)[C@H](CC(C)C)NC(=O)[C@H](CO)NC(=O)[C@H](CO)NC(=O)c1ccc2c(c1)C(=O)OC21c2ccc(O)cc2Oc2cc(O)ccc21)C(=O)N[C@@H](CCCCN)C(=O)O [SSL-9 E5K D9K] (5FAM-SSLLKKGLK-OH; N-terminus and C-terminus assumed)
viability at 24 h, 100 µM (in vitro): 70% | cellular translocation [1]: 22% | cell uptake in comparison to SSL-25 [1]: reduced but comparable uptake

CC(C)C[C@H](NC(=O)CNC(=O)[C@H](CCCCN)NC(=O)[C@H](CCC(=O)O)NC(=O)[C@H](CC(C)C)NC(=O)[C@H](CC(C)C)NC(=O)[C@H](CO)NC(=O)[C@H](CO)NC(=O)c1ccc2c(c1)C(=O)OC21c2ccc(O)cc2Oc2cc(O)ccc21)C(=O)N[C@@H](CC(=O)O)C(=O)O [SSL-9, SSLLEKGLD] (5FAM-SSLLEKGLD-OH; N-terminus and C-terminus assumed)
extent of translocation [2]: reduced translocation | viability at 24 h, 100 µM (in vitro): 70% | cellular translocation [1]: 50% | cell uptake in comparison to SSL-25 [1]: higher cell uptake in comparison to SSL-25

CC(C)C[C@H](NC(=O)CNC(=O)[C@H](CCCCN)NC(=O)[C@H](CCC(=O)O)NC(=O)[C@H](CC(C)C)NC(=O)[C@H](CC(C)C)NC(=O)[C@H](CO)NC(=O)[C@H](CO)NC(=O)c1ccc2c(c1)C(=O)OC21c2ccc(O)cc2Oc2cc(O)ccc21)C(=O)N[C@@H](CC(=O)O)C(=O)NCC(=O)N[C@@H](C)C(=O)O [SSL-11, SSLLEKGLDG A] (5FAM-SSLLEKGLDGA-OH; N-terminus and C-terminus assumed)
extent of translocation [2]: reduced translocation | viability at 24 h, 100 µM (in vitro; HaCaT keratinocytes): 70% | cellular translocation [1]: 70% | cell uptake in comparison to SSL-25 [1]: higher cell uptake in comparison to SSL-25

CC(C)C[C@H](NC(=O)CNC(=O)[C@H](CCCCN)NC(=O)[C@H](CCC(=O)O)NC(=O)[C@H](CC(C)C)NC(=O)[C@H](CC(C)C)NC(=O)[C@H](CO)NC(=O)[C@H](CO)NC(=O)c1ccc2c(c1)C(=O)OC21c2ccc(O)cc2Oc2cc(O)ccc21)C(=O)N[C@@H](C)C(=O)NCC(=O)N[C@@H](C)C(=O)N[C@@H](CCCCN)C(=O)N[C@@H](CCCCN)C(=O)O [SSL-13 D9A, SSLLEKGLAG AKK] (5FAM-SSLLEKGLAGAKK-OH; N-terminus and C-terminus assumed)
viability at 24 h, 100 µM (in vitro; HaCaT keratinocytes): 70% | cellular translocation [1]: 81.5% | cell uptake in comparison to SSL-25 [1]: higher cell uptake in comparison to SSL-25

CC(C)C[C@H](NC(=O)CNC(=O)[C@H](CCCCN)NC(=O)[C@H](CCC(=O)O)NC(=O)[C@H](CC(C)C)NC(=O)[C@H](CC(C)C)NC(=O)[C@H](CO)NC(=O)[C@H](CO)NC(=O)c1ccc2c(c1)C(=O)OC21c2ccc(O)cc2Oc2cc(O)ccc21)C(=O)N[C@@H](CC(=O)O)C(=O)NCC(=O)N[C@@H](C)C(=O)N[C@@H](CCCCN)C(=O)N[C@@H](CCCCN)C(=O)O [SSL-13, SSLLEKGLDG AKK] (5FAM-SSLLEKGLDGAKK-OH)
extent of translocation [2]: able to penetrate lipid membranes very efficiently | viability at 24 h, 100 µM (in vitro): 70% | cellular translocation [1]: 48% | cell uptake in comparison to SSL-25 [1]: higher cell uptake in comparison to SSL-25

SSLLEKGLDGAKKAVGGLGKLGKDAVEDLESVGKGAVHDVKDVLDSVL [DCD-1L, SSLLEKGLDGAKKAVGGLGKLGKDAVEDLESVGKGAVHDVKDVLDSVL]
hemolysis (human erythrocytes): no hemolysis
